Where a name gives a salt, the structure may show the parent alone.
The compounds below were run on γ-secretase; production of amyloid beta protein Aβ(1-42) (assay: Cell-Based γ-Secretase Assay with ELISA Readout). Conditions: human WT-APP overexpressing CHO cells; footnote 8: single determination; read-out: Aβ 42B IC50 (nM) (Geometric Mean of 2-8 Determinations).
Method: The ability of compounds to modulate production of amyloid beta protein A6(1-42) was determined using human WT-APP overexpressing CHO cells. Cells were plated at 22,000 cells/100 μL well in 96 well tissue culture treated, clear plates (Falcon) in DMEM/F12 based medium and incubated for 24 hours at 37° C. Compounds for testing were diluted in 100% DMSO to achieve an eleven points, half log, dose response for IC50 determinations. Compounds were added in fresh medium to achieve 1% final DMSO. Appropriate vehicle and inhibitor controls were added to obtain maximum and minimum inhibition values for the assay before the plates were incubated for about 24 hours at 37° C.
Coating of ELISA assay plates was initiated by addition of 50 μL/well of an in-house Aβ(1-42) specific antibody at (4 μg/mL) in 0.1 M NaHCO3 (pH 9.0) into black 384-well Maxisorp® plates (Nunc) and incubated overnight at 4° C. The capture antibody was then aspirated from the ELISA assay plates and 100 μL/well of Blocking Buffer (Dulbecco's PBS, 1.5% BSA (Sigma A7030)) added. Ambient temperature incubation was allowed to proceed for a minimum of two hours before washing 2×100 μL with Wash Buffer (Dulbecco's PBS, 0.05% Tween 20). Assay Buffer (Dulbecco's PBS, 1.0% BSA (Sigma A7030), 0.05% Tween 20) 20 μL/well was then added.
After incubation overnight at 37° C., 5% CO2, 40 μL (in duplicate) of experimental conditioned media were transferred into wells of the blocked ELISA plates containing the capture antibody, followed by overnight incubation at 4° C.
After overnight incubation of the ELISA assay plates at 4° C., unbound Aβ peptides were removed thorough (4×100 μL) washes with Wash Buffer. Europium (Eu) labeled (custom labeled, Perkin Elmer) Aβ(1-16) 6e10 Monoclonal Antibody (Covance #SIG-39320 was added, (50 μL/well Eu-6e10 @ 1:5000, 20 uM EDTA) in Assay Buffer. Incubation at ambient temperature for a minimum of 2 hours was followed by (4×100 μL) washes with Wash Buffer, before 50 μL/well of Delfia Enhancement Solution (PerkinElmer) was added. Following a one hour ambient temperature incubation, the plates were read on an EnVision plate reader (PerkinElmer) using standard DELFIA TRF settings. Data analysis including inhibitory IC50 determination was performed using nonlinear regression fit analysis (in-house software) and the appropriate plate mean values for the maximum and minimum inhibition controls.

Row | SMILES | IC50 [nM]
1 | O=C(O)C[C@H]1CC[C@@H](N(CC2CCCC2)CC2CCCC2)[C@H](c2ccc(C(F)(F)F)cc2)O1 [Example 22, {(2R,5R,6S)-5-[bis(cyclopentyl-methyl)amino]-6-[4-(trifluoromethyl)phenyl]tetrahydro-2H-pyran-2-yl} acetic acid] | 6390
2 | O=C(O)C[C@@H]1CC[C@@H](N(Cc2ccccc2F)CC2CCCC2)[C@H](c2ccc(C(F)(F)F)cc2)C1 [Example 27, {(1R,3S,4R)-4-[(cyclopentyl-methyl)(2-fluorobenzyl)amino]-3-[4-(trifluoromethyl)phenyl]cyclohexyl} acetic acid] | 155
3 | CC(C)CCN(CC1(F)CCCCC1)[C@@H]1CC[C@@H](CC(=O)O)C[C@H]1c1ccc(C(F)(F)F)cc1 [Example 14, {(1R,3S,4R)-4-{[(1-fluorocyclo-hexyl)methyl](3-methylbutyl)amino}-3-[4-(trifluoromethyl)phenyl]cyclohexyl} acetic acid] | 103
4 | CC1(CN(CC2CCCC2)[C@@H]2CC[C@@H](CC(=O)O)C[C@H]2c2ccc(C(F)(F)F)cc2)CCCC1 [Example 21, {(1R,3S,4R)-4-{(cyclopentyl-methyl)[(1-methylcyclo-pentyl)methyl]amino}-3-[4-(trifluoromethyl)phenyl]cyclohexyl} acetic acid] | 435
5 | CC(C)CCN(CCC(F)(F)F)[C@@H]1CO[C@@H](CC(=O)O)C[C@H]1c1ccc(C(F)(F)F)cc1 [Example 10, 2-{(2R,4S,5S)-5-[(3-methylbutyl)(3,3,3-trifluoropropyl)amino]-4-[4-(trifluoromethyl)phenyl]tetrahydro-2H-pyran-2-yl} acetic acid, hydrochloride salt] | 4770
6 | CC(C)CCN(C1CCC(F)(F)CC1)[C@@H]1CC[C@@H](CC(=O)O)C[C@H]1c1ccc(C(F)(F)F)cc1 [Example 16, {(1R,3S,4R)-4-[(4,4-difluoro-cyclohexyl)(3-methylbutyl)amino]-3-[4-(trifluoromethyl)phenyl]cyclohexyl} acetic acid] | 496
7 | CC(C)CCN(CCC(F)(F)F)[C@@H]1CC[C@@H](CC(=O)O)C[C@H]1c1ccc(C(F)(F)F)cc1 [Example 11, {(1R,3S,4R)-4-[(3-methylbutyl) (3,3,3-trifluoropropyl)amino]-3-[4-(trifluoromethyl)phenyl]cyclohexyl} acetic acid, hydrochloride salt] | 470
8 | CC(C)CCN(CC1CCCCC1)[C@@H]1CC[C@@H](CC(=O)O)C[C@H]1c1ccc(C(F)(F)F)cc1 [Example 13, {(1R,3S,4R)-4-[(cyclohexylmethyl) (3-methylbutyl)amino]-3-[4-(trifluoromethyl)phenyl]cyclohexyl} acetic acid] | 236
9 | O=C(O)C[C@@H]1CC[C@@H](N(CC2CCCC2)CC2CCCC2)[C@H](c2ccc(F)cc2)C1 [Example 18, [(1R,3S,4R)-4-[bis(cyclopentyl-methyl)amino]-3-(4-fluorophenyl)cyclohexyl]acetic acid] | 2630

Same assay, conditions: human WT-APP overexpressing CHO cells; geometric mean of 2-4 determinations unless otherwise indicated (footnote 10: 6-8; footnote 14: single determination); read-out: Aβ 42B IC50

Row | SMILES | IC50 [nM]
10 | O=C(O)C[C@@H]1CC[C@@H](N(CCC(F)(F)F)CC2CCCC2)[C@H](c2ccc(C(F)(F)F)cc2)C1 [Example 45, {(1R,3S,4R)-4-[(cyclopentylmethyl)(3,3,3-trifluoropropyl)amino]-3-[4-(trifluoromethyl)phenyl]cyclohexyl}acetic acid, trifluoroacetate salt] | 484
11 | O=C(O)C[C@@H]1CC[C@@H](N(CC2CCCC2)CC2CCCC2)[C@H](c2ccc(Cl)c(F)c2)O1 [Example 54, [(2S,5R,6S)-5-[bis(cyclopentylmethyl)amino]-6-(4-chloro-3-fluorophenyl)tetrahydro-2H-pyran-2-yl]acetic acid, ammonium acid] | 1050
12 | O=C(O)C[C@@H]1CC[C@@H](N(CC2=Cc3ccccc3OC2)CC2(F)CCCCC2)[C@H](c2ccc(C(F)(F)F)cc2)C1 [Example 62, {(1R,3S,4R)-4-{(2H-chromen-3-ylmethyl)[(1-fluorocyclohexyl)methyl]amino}-3-[4-(trifluoromethyl)phenyl]cyclohexyl}acetic acid, trifluoroacetate salt] | 223
13 | O=C(O)C[C@@H]1CC[C@@H](N(Cc2ccc3nonc3c2)CC2(F)CCCCC2)[C@H](c2ccc(C(F)(F)F)cc2)C1 [Example 65, {(1R,3S,4R)-4-{(2,1,3-benzoxadiazol-5-ylmethyl)[(1-fluorocyclohexyl)methyl]amino}-3-[4-(trifluoromethyl)phenyl]cyclohexyl}acetic acid, trifluoroacetate salt] | 509
14 | O=C(O)C[C@@H]1CC[C@@H](N(CC2CCCCC2)C2CCOCC2)[C@H](c2ccc(C(F)(F)F)cc2)C1 [Example 31, {(1R,3S,4R)-4-[(cyclohexylmethyl)(tetrahydro-2H-pyran-4-yl)amino]-3-[4-(trifluoromethyl)phenyl]cyclohexyl}acetic acid, ammonium salt] | 1300
15 | O=C(O)C[C@@H]1CC[C@@H](N(Cc2cncnc2)CC2CCCC2)[C@H](c2ccc(C(F)(F)F)cc2)C1 [Example 38, {(1R,3S,4R)-4-[(cyclopentylmethyl)(pyrimidin-5-ylmethyl)amino]-3-[4-(trifluoromethyl)phenyl]cyclohexyl}acetic acid, trifluoroacetate salt] | 5220
16 | O=C(O)C[C@@H]1CC[C@@H](N(CC2CCCC2)CC2CCCC2)[C@H](c2cccc(Cl)c2)O1 [Example 47, [(2S,5R,6S)-5-[bis(cyclopentylmethyl)amino]-6-(3-chlorophenyl)tetrahydro-2H-pyran-2-yl]acetic acid, ammonium salt] | 1840
17 | CC(C)CCN(CCC1CCCCC1)[C@@H]1CC[C@@H](CC(=O)O)C[C@H]1c1ccc(C(F)(F)F)cc1 [Example 32, {(1R,3S,4R)-4-[(2-cyclohexylethyl)(3-methylbutyl)amino]-3-[4-(trifluoromethyl)phenyl]cyclohexyl}acetic acid, trifluoroacetate salt] | 598
18 | CC(C)CCN(Cc1nccs1)[C@@H]1CC[C@@H](CC(=O)O)C[C@H]1c1ccc(C(F)(F)F)cc1 [Example 33, {(1R,3S,4R)-4-[(3-methylbutyl)(1,3-thiazol-2-ylmethyl)amino]-3-[4-(trifluoromethyl)phenyl]cyclohexyl}acetic acid, trifluoroacetate acid] | 3020
19 | CC(C)(C)CCN(CC1CCCC1)[C@@H]1CC[C@@H](CC(=O)O)C[C@H]1c1ccc(C(F)(F)F)cc1 [Example 35, {(1R,3S,4R)-4-[(cyclopentylmethyl)(3,3-dimethylbutyl)amino]-3-[4-(trifluoromethyl)phenyl]cyclohexyl}acetic acid, ammonium salt] | 516
20 | CC(C)C[C@H](C)N(CC1CCCC1)[C@@H]1CC[C@@H](CC(=O)O)C[C@H]1c1ccc(C(F)(F)F)cc1 (single isomer, unassigned) [Example 56] | 544

Same assay, conditions: human WT-APP overexpressing CHO cells; geometric mean of 2 determinations unless otherwise indicated (footnote 2: 6-14 determinations); read-out: Aβ 42B IC50

Row | SMILES | IC50 [nM]
21 | O=C(O)C[C@@H]1CC[C@@H](N(CC2CCCC2)CC2CCCC2)[C@H](c2ccc(Cl)cc2)C1 [Example 6, [(1R,3S,4R)-4-[bis(cyclopentylmethyl)amino]-3-(4-chlorophenyl)cyclohexyl]acetic acid] | 719
22 | CC(C)CCN(CCC(C)C)[C@@H]1CC[C@@H]([C@@H](C)C(=O)O)C[C@H]1c1ccc(C(F)(F)F)cc1 (single isomer, unassigned) [Example 7] | 1750
23 | CC(C)CCN(CCC(C)C)[C@@H]1CC[C@@H]([C@H](C)C(=O)O)C[C@H]1c1ccc(C(F)(F)F)cc1 (single isomer, unassigned) [Example 8] | 1580

Source: patent US20120295923A1, “Aminocyclohexanes and Aminotetrahydropyrans and Related Compounds As Gamma-Secretase Modulators” (PFIZER INC., priority 2010, published 2012)
